Values quoted from earlier work in US8114422B2, “Methods and compositions for reducing skin damage” (The General Hospital Corporation, priority 2005, dated 2012).
Like-named read-outs stand apart in the source and are kept apart here.

Tests used:
PDGF receptor kinase = conditions: read-out: IC50 PDGF receptor (tyrosine) kinase
[1] = system: mitochondrial membrane potential

Row | IC50 (PDGF receptor kinase) [µM] | Compound | depolarization of mitochondrial membrane potential ([1]; treatment of cells at 10 μM) | depolarization of mitochondrial membrane potential ([1]; treatment of cells at 100 nm)
1 | 20 | N#CC(=Cc1ccc2[nH]ccc2c1)C(N)=C(C#N)C#N [AG-370] |  | 
2 | 1 | COc1cc2ncc(-c3ccccc3)nc2cc1OC [AG-1296, 6,7-Dimethoxy-3-phenylquinoxaline] |  | 
3 |  | N#CC(C#N)=NNc1ccc(OC(F)(F)F)cc1 [FCCP, Carbonylcyanide-4-(trifluoromethoxy)-phenylhydrazone] | complete (10 μM) | partial (100 nm) or
